Like-named read-outs stand apart in the source and are kept apart here.
Tests used:
Type in all cases: cell-based
Bacteroides fragilis = assay: Susceptibility of Anaerobic Bacteroides Isolates by the Agar-Dilution Method (Table III); conditions: 24 h
Source text: (§1) A typical and preferred compound provided by this invention is 7-(3-benzothienyl)glycylamido-3-methyl-3-cephem-4-carboxylic acid, the compound illustrated in Example 9. The antibacterial activity of this compound has been determined in standard in vitro agar dilution assays against a variety of gram positive and gram negative microorganism. The following Tables present typical minimum inhibitory concentrations (MIC's) in μg/ml for several compounds of the invention when evaluated against the indicated microorganisms. MIC's for several known compounds are also presented for comparison.
(§2) Susceptibility of Anaerobic Bacteroides Isolates by the
(§3) Agar-Dilution Method MIC (μg/ml) readings 24 hrs. after incubation

[1] = tested on: Bacteroides thetaiotaomicron; assay: as above; conditions: 24 h
Source text: as §1, §2, §3

Bacteroides corrodens = assay: as above; conditions: Eikenella corrodens; strain 1874; readings 24 hrs. after incubation
Source text: as §1, §2, §3

Strep. D = assay: Agar Dilution MIC (Table I); conditions: read-out: Agar Dilution MIC
Source text: as §1
Agar Dilution MIC (μg/ml)

E. coli = assay: Agar Dilution MIC (Table I); conditions: Escherichia coli
Strep. A = assay: Agar Dilution MIC (Table I); conditions: strain C203; read-out: Agar Dilution MIC
Staph. aureus [2] = assay: Expanded Spectrum MIC (Table II); conditions: Staphylococcus aureus
Source text: as §1
(§4) Expanded Spectrum MIC (μg/ml)

H. influenzae = assay: Expanded Spectrum MIC (Table II); conditions: Haemophilus influenzae
Source text: as §1, §4

Strep. PN = assay: Agar Dilution MIC (Table I); conditions: strain PARK
Klebsiella = assay: Agar Dilution MIC (Table I); conditions: Klebsiella, read-out: Agar Dilution MIC
H. influ. = assay: Agar Dilution MIC (Table I); conditions: read-out: Agar Dilution MIC
Staph. epi [3] = assay: Agar Dilution MIC (Table I); conditions: read-out: Agar Dilution MIC
Staph. epi [4] = assay: Expanded Spectrum MIC (Table II)
Source text: as §1, §4

Staph. aureus [5] = assay: Agar Dilution MIC (Table I); conditions: Staphylococcus aureus, read-out: Agar Dilution MIC

Measured: MIC

CC1=C(C(=O)O)N2C(=O)C(NC(=O)[C@H](N)c3csc4cccc(F)c34)C2SC1 (stereo partly drawn) [Ex. 19, D-7-(4-Fluoro-3-benzothienyl)glycylamido-3-methyl-3-cephem-4-carboxylic acid]
32 µg/mL: Bacteroides fragilis; strain 103, readings 24 hrs. after incubation | [1]; strain 1900A, readings 24 hrs. after incubation | Bacteroides corrodens
4 µg/mL: Staph. aureus [2]; strain S224 | Staph. aureus [2]; strain S225 | Staph. aureus [2]; strain S226 | Staph. aureus [2]; strain S227 | Staph. aureus [2]; strain S228 | Staph. aureus [2]; strain S230 | Staph. aureus [2]; strain S234 | Staph. aureus [2]; strain S237 | H. influenzae; strain 76 | H. influenzae; strain 105 | H. influenzae; strain 158 | H. influenzae; strain 164 | H. influenzae; strain 169 | H. influenzae; strain 171 | H. influenzae; strain M370 | H. influenzae; strain M371 | Strep. PN | H. influ.; strain 76
16 µg/mL: Bacteroides fragilis; strain 104, readings 24 hrs. after incubation | Bacteroides fragilis; strain 108, readings 24 hrs. after incubation | [1]; strain 1438, readings 24 hrs. after incubation | H. influenzae; strain 1930 | H. influenzae; strain C.L. | H. influenzae; strain HESS | Klebsiella; strain X26 | H. influ.; strain C.L.
128 µg/mL: Strep. D; strain 2041 | Strep. D; strain X66 | E. coli; strain EC14 | E. coli; strain N10 | E. coli; strain TEM | Klebsiella; strain KAE | Klebsiella; strain X68
64 µg/mL: Bacteroides fragilis; strain 111, readings 24 hrs. after incubation | H. influenzae; strain M366 | H. influenzae; strain R465 | H. influenzae; strain STEL
1 µg/mL: Strep. A
8 µg/mL: Bacteroides fragilis; strain 9, readings 24 hrs. after incubation | Bacteroides fragilis; strain 106, readings 24 hrs. after incubation | Bacteroides fragilis; strain 107, readings 24 hrs. after incubation | Bacteroides fragilis; strain 110, readings 24 hrs. after incubation | Bacteroides fragilis; strain 1877, readings 24 hrs. after incubation | Staph. aureus [2]; strain S229 | Staph. aureus [2]; strain S238 | Staph. aureus [2]; strain S239 | H. influenzae; strain 312 | H. influenzae; strain 4842
2 µg/mL: Staph. aureus [2]; strain S231 | H. influenzae; strain 1683

CON=C(C(=O)NC1C(=O)N2C(C(=O)O)=C(C)CSC12)c1csc2cc(OC)ccc12 (stereo not drawn) [Ex. 22]
16 µg/mL: Staph. epi [4]; strain EPI1
1 µg/mL: Staph. epi [4]; strain 286 | Staph. aureus [2]; strain S231 | H. influenzae; strain 76 | H. influenzae; strain 158 | H. influenzae; strain 164 | H. influenzae; strain 312 | H. influenzae; strain 1930 | H. influenzae; strain 4842 | H. influenzae; strain M370 | Staph. aureus [5]; strain X1.1 | Klebsiella; strain X26
128 µg/mL: E. coli; strain N10 | E. coli; strain TEM | Klebsiella; strain KAE | Klebsiella; strain X68
4 µg/mL: Staph. epi [3]; strain 222 | Staph. epi [4]; strain 269 | Staph. epi [4]; strain 285 | Staph. aureus [2]; strain S229 | Staph. aureus [2]; strain S238 | H. influenzae; strain C.L. | H. influenzae; strain HESS
2 µg/mL: Staph. epi [4]; strain 219 | Staph. aureus [2]; strain S224 | Staph. aureus [2]; strain S225 | Staph. aureus [2]; strain S226 | Staph. aureus [2]; strain S227 | Staph. aureus [2]; strain S228 | Staph. aureus [2]; strain S230 | Staph. aureus [2]; strain S234 | Staph. aureus [2]; strain S237 | Staph. aureus [2]; strain S239 | H. influenzae; strain 105 | H. influenzae; strain 169 | H. influenzae; strain 171 | H. influenzae; strain M371 | H. influenzae; strain R465 | H. influ.; strain 76
0.5 µg/mL: Strep. A | H. influenzae; strain 1683 | Strep. PN
64 µg/mL: Strep. D; strain 2041 | Strep. D; strain X66 | E. coli; strain EC14 | H. influenzae; strain M366 | H. influenzae; strain STEL | Staph. aureus [5]; strain X400
8 µg/mL: Staph. epi [3]; strain EPI1 | Staph. epi [4]; strain 270 | Staph. aureus [5]; strain V41 | H. influ.; strain C.L.

— patent US4492693A, “Benzothienylglycyl cephalosporin derivatives” (priority 1983, dated 1985)
